Test results taken from ChEMBL document CHEMBL1201862, “PubChem BioAssay data set” (2004).
Active and inactive are the calls of the source.

Assays:
[1] = viability of uninfected HEp-2 cells – cell-based, HTS, cytotoxicity control for RSV inhibitor project, dose response (AID 2410); type: functional; conditions: human respiratory syncytial virus
[2] = target: T1, High affinity choline transporter 1 (Homo sapiens, UniProt Q9GZV3); experiment: human choline transporter blockers, potency – cell-based, 5-point CRC, membrane potential dye, dose response (AID 504840); type: functional
T1 sequence (Q9GZV3 whole entry): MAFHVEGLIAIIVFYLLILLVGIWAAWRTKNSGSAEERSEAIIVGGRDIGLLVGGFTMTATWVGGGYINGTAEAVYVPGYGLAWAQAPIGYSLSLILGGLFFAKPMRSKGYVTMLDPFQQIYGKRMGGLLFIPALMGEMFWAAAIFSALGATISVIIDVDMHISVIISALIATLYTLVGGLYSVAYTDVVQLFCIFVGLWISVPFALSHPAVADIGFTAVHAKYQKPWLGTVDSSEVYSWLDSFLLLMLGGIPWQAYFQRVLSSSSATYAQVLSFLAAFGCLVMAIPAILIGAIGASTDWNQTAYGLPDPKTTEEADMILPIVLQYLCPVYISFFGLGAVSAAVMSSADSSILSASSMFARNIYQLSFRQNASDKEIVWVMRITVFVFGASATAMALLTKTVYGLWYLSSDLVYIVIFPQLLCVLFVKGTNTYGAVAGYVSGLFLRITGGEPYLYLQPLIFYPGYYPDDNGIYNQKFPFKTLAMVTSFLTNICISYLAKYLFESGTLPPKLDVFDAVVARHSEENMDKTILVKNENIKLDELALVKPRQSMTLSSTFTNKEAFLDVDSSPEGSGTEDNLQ

[3] = target: T1, High affinity choline transporter 1; experiment: human choline transporter blockers, potency – cell-based, 10-point CRC, membrane potential dye, dose response (AID 588401); type: functional;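 also: membrane potential dye fluorescence of choline-evoked depolarization via CHT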
[4] = target: T2, Interleukin-8 (Homo sapiens, UniProt P10145); experiment: Dose Response confirmation of uHTS small molecule hits for cystic fibrosis induced NFkb Inhibitors in a PAF-induced IL8 counterscreen.; type: functional; conditions: read-out: IC50_Mean
T2 sequence (P10145 whole entry): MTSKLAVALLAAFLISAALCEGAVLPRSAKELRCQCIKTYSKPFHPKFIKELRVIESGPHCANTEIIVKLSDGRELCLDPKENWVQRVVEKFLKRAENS

[5] = general mammalian cell viability loss – inhibitor set, cherry-pick, set 2, cytotoxicity control for miR-122 modulator project, dose response (AID 720697); type: functional, cell-based
[6] = viability loss in HeLa cells – cytotoxicity control for MgcRacGAP inhibitor project, dose response (AID 624300); type: functional
[7] = tested on: CHO; experiment: CHO cell viability loss, potency – luminescence, cytotoxicity control for TLR9-MyD88 binding inhibitor project, dose response (AID 588339); type: functional, cell-based, hamster; conditions: Cricetulus griseus;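 also: CHO cells stably coexpressing TLR9 and MyD88 fusions from primary screen; compound exposure lasted 48 hours before viability readout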
[8] = target: Heat shock protein HSP 90-alpha (Homo sapiens, UniProt P07900); type: functional, organism-based
[9] = target: Beta Lactamase (Pseudomonas aeruginosa, UniProt Q932Y6); experiment: BLA reporter interference, concentration series – BLA reporter cells, FRET fluorescence, artefact control for TLR9-MyD88 binding inhibitor project, dose response (AID 588341); type: cell-based;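 also: cell based assay in CHO-K1 cells stably expressing beta-lactamase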
[10] = target: T3, RNA-binding protein pos-1 (Caenorhabditis elegans, UniProt G5EF15); experiment: disruptors of C. elegans POS-1 RNA interaction – biochemical, fluorescence polarization, dose response (AID 1964);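 also: purified POS-1 fused to maltose binding protein made in E. coli; potency of compounds blocking POS-1 binding to fluorescent RNA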
T3 sequence (G5EF15 whole entry): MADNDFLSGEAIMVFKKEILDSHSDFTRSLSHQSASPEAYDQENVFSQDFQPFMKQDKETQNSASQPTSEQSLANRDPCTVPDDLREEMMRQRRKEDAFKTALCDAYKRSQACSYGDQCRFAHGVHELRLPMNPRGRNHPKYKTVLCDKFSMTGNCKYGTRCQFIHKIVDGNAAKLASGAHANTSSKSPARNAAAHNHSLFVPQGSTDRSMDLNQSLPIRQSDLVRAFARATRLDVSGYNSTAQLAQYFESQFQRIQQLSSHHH

[11] = target: T4, Zinc finger protein mex-5 (Caenorhabditis elegans, UniProt Q9XUB2); experiment: potency of MEX-5 RNA-binding blockers – biochemical, C. elegans, fluorescence polarization, dose response (AID 1960)
T4 sequence (Q9XUB2 whole entry): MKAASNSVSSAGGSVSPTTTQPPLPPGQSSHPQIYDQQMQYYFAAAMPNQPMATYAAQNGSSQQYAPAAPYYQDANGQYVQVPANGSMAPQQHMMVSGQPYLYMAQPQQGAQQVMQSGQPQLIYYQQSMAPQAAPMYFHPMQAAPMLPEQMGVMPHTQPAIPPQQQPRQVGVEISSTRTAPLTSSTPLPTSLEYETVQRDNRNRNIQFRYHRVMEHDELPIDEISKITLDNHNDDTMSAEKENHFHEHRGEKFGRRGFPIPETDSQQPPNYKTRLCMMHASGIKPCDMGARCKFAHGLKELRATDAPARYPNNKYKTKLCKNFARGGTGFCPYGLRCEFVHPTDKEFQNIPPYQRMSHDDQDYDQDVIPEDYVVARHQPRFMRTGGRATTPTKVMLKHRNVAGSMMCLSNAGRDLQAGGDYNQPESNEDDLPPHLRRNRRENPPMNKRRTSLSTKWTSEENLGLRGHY

[12] = target: Genome polyprotein (dengue virus type 2, UniProt P29990); experiment: flavivirus cap methylation enzyme inhibition – biochemical, confirmation dose response, primary screen (AID 588689); type: functional
[13] = target: T5, Rac GTPase-activating protein 1 (Homo sapiens, UniProt Q9H0H5); experiment: blockers of MgcRacGAP-driven Rac1 GTP hydrolysis – biochemical, ADP Hunter fluorescence, primary and confirmatory, confirmation (AID 624330); type: functional
T5 sequence (Q9H0H5 whole entry): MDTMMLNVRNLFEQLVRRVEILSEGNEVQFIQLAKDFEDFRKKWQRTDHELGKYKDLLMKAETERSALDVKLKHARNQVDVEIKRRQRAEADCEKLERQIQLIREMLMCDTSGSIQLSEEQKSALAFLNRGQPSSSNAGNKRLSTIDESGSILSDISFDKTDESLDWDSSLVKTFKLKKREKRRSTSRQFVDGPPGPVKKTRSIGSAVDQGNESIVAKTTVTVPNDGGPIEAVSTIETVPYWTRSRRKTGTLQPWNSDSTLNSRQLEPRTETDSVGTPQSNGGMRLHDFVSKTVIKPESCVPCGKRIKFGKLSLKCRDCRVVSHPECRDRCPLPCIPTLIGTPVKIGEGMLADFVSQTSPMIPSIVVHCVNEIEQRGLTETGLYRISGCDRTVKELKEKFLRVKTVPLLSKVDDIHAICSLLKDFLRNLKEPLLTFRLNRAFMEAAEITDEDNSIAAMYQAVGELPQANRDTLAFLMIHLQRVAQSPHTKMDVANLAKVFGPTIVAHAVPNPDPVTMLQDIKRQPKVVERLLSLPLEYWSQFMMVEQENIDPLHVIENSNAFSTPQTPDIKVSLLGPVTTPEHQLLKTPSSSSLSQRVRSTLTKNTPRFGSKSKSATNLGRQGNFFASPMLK

[14] = Luminescence Cell-Based Dose Retest to Confirm Inhibitors of Cancer Stem Cells. [Related pubchem assays (depositor defined):AID2717, AID2721]; type: functional; conditions: Homo sapiens
[15] = target: T6, Cysteine protease ATG4B (Homo sapiens, UniProt Q9Y4P1); type: functional;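 also: Fluorescence-based dose-response confirmation assay measuring inhibition of ATG4B activity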
T6 sequence (Q9Y4P1 whole entry): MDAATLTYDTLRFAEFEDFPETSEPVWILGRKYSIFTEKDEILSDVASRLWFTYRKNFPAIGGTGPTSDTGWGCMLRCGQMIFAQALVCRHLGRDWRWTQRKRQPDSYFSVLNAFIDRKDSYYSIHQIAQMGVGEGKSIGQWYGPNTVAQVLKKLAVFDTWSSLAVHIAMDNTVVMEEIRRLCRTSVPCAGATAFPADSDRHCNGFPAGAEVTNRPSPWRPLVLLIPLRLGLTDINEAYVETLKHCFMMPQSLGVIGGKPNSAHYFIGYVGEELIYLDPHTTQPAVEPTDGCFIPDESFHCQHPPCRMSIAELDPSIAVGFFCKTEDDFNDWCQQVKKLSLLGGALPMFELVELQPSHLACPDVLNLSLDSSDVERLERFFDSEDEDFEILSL

[16] = target: Phospholipase A2 (Homo sapiens, UniProt P04054); type: functional;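 also: confirmatory dose-response counterscreen on phospholipase A2, testing hits that came from an ultra-high-throughput screen for ATG4B inhibitors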
[17] = Counterscreen for inhibitors of Trypanosoma brucei methionyl tRNA synthetase (MetRS): Luminescence-based cell-based high throughput dose response assay to identify compounds that are cytotoxic to Jurkat human T lymphocyte cells.; type: functional
[18] = target: T7, DNA repair and recombination protein RAD54-like (Homo sapiens, UniProt Q92698); experiment: RAD54 Holliday junction migration blockers – biochemical, fluorescence, cherry-picked samples, dose series, confirmation (AID 651657); type: functional
T7 sequence (Q92698 whole entry): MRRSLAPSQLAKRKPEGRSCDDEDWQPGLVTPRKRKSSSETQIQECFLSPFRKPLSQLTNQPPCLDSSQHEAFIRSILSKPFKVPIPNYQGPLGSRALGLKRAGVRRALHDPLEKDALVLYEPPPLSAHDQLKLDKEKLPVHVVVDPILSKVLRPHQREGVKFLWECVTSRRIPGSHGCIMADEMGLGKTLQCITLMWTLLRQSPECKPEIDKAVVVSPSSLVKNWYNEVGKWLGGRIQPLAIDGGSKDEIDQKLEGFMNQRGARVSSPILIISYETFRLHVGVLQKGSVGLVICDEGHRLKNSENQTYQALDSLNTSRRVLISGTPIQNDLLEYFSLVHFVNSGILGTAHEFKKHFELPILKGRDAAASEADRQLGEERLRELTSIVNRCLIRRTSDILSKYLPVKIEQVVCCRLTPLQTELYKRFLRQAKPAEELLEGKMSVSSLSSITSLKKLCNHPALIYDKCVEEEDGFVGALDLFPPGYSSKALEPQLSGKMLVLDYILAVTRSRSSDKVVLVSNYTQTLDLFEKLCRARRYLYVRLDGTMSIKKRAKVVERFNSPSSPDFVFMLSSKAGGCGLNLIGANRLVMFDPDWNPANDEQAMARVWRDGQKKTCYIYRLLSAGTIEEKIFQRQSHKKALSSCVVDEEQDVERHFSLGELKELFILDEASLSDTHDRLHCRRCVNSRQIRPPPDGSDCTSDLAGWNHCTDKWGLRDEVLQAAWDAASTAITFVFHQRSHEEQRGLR

[19] = target: T8, DNA repair protein RAD52 homolog (Homo sapiens, UniProt P43351); type: functional, biochemical
T8 sequence (P43351 whole entry): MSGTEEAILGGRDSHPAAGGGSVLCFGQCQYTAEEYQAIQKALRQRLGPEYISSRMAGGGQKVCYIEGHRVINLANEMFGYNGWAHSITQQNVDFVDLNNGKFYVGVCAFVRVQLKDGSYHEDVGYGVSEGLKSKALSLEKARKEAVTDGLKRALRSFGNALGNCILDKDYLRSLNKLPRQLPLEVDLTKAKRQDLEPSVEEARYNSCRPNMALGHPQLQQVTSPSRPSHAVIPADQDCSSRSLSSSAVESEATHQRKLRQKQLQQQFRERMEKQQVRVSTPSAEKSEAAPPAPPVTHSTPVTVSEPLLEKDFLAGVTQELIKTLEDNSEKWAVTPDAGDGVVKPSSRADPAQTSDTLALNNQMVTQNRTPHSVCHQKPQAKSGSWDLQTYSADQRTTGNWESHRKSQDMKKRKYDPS

[20] = target: Paired box protein Pax-8 (Homo sapiens, UniProt Q06710); experiment: PAX8 transcriptional activity inhibition in RMG-I – RMG-I cells, luciferase, cherry-pick, dose response (AID 687027); type: functional, cell-based;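 also: luciferase reporter driven by Pax8 target thyroperoxidase promoter measured by SteadyGlo luminescence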
[21] = tested on: Streptococcus sp. 'group A'; experiment: Streptococcus pyogenes SK(-)GAS viability under kanamycin – luminescence, BacTiterGlo, confirmation, counter-screen for streptokinase expression inhibitor project, dose response (AID 1900); type: functional, organism-based
[22] = tested on: Streptococcus; experiment: GAS UMAA2166 growth inhibition – luminescence, BacTiterGlo, counter-screen for streptokinase expression inhibitor project, dose response (AID 1915); type: functional, organism-based;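 also: potency for reduction of bacterial viability or growth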
[23] = activation of miR-122 Renilla sensor silencing – cell-based, Huh7 psiCHECK-miR122, Renilla luciferase, cherry-picked, dose response (AID 651956); type: functional;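 also: huh7 hepatoma cells stably carrying a psiCHECK-2 miR-122 sensor plasmid; renilla luciferase signal reporting endogenous miR-122 activity after 48 h compound exposure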

Chain of Phospholipase A2 (P04054 whole entry): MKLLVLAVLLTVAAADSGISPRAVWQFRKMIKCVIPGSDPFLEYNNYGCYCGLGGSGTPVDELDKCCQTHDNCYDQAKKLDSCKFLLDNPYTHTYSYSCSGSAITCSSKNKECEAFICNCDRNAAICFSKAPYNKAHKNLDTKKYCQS
Chain of Paired box protein Pax-8 (Q06710 whole entry): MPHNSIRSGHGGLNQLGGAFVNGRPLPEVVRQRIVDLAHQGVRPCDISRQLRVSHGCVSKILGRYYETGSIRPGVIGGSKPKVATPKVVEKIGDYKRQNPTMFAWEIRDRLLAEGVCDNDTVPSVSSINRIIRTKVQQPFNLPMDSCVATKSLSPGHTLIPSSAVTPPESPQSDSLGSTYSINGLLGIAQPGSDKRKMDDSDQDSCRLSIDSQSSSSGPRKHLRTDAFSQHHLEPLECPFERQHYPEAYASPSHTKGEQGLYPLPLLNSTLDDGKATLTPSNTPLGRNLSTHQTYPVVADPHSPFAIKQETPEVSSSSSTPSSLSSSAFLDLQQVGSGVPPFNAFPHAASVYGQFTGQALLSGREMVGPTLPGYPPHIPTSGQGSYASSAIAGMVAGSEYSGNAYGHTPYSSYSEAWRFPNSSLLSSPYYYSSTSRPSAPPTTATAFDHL
Chain of Beta Lactamase (Q932Y6 whole entry, the tested form may be a part): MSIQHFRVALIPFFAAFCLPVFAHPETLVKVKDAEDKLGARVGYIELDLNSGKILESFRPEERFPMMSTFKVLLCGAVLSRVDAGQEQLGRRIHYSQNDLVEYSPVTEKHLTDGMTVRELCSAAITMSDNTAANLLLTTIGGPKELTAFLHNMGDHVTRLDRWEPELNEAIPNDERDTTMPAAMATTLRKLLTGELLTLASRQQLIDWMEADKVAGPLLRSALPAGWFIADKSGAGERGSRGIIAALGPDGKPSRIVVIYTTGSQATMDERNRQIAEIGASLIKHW
Chain of Genome polyprotein (P29990 2492-3391 limits assumed): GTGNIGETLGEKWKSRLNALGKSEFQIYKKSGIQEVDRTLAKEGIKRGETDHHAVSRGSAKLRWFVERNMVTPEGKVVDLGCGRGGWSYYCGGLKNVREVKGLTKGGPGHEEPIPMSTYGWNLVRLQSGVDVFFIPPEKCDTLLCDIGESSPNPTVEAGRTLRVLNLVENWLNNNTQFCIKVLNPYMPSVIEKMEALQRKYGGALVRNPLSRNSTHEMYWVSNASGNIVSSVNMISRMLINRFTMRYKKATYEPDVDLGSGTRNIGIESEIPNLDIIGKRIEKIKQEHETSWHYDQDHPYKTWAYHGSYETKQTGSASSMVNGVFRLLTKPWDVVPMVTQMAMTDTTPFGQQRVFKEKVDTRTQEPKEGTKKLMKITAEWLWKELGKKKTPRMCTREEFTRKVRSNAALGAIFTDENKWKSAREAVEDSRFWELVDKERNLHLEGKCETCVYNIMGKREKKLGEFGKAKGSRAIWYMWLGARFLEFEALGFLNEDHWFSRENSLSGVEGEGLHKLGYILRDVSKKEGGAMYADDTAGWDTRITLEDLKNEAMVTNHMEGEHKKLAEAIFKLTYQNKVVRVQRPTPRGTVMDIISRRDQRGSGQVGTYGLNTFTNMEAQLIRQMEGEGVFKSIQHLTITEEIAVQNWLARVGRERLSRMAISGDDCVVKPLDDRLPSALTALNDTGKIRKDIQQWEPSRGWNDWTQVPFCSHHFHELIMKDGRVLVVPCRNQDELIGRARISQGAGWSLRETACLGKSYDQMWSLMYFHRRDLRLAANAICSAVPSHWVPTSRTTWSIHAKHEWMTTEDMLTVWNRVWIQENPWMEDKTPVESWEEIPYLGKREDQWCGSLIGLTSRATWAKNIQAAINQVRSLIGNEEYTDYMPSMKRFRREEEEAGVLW

## Cc1ccc(-c2csc(NC(=O)c3ccccc3Cl)c2C(=O)O)cc1
[1]
  CC50: 19.4 µM (active)
[2]
  IC50: 2.27 µM (active)
[3]
  IC50: 1.58 µM (active)

## Cc1nc(N)c(C#N)c(-c2cccnc2)c1-c1ccccc1
[4]
  IC50: > 79 µM (inactive)

## CC(C)c1ccc(CNC(=O)CSCC(=O)Nc2ccc3ccccc3c2)cc1
[5]
  AC50: 4.3 µM (active)

## N#C/C(=C/c1ccc(N2CCOCC2)o1)c1ccc(Cl)cc1
[6]
  CC50: 100 µM (active)

## Cc1cccc(N2C(=O)/C(=C\c3ccc(OC(F)F)cc3)c3ccccc3C2=O)c1
[7]
  IC50: 40.4 µM (inactive)
[8]
  AC50: 4.43 µM (active)
[9]
  IC50: 3.9 µM (active)

## O=C(O)c1ccccc1-c1ccc(C=C2C(=O)N(c3ccccc3)C(=S)N(c3ccccc3)C2=O)o1
[10]
  EC50: > 300 µM (not active)
[11]
  EC50: > 300 µM (not active)
[12]
  IC50: 12.3 µM (active)
[13]
  IC50: 105 µM (active)

## O=C(Nc1cccc(Cl)c1N1CCCC1)c1cccc(-c2cc3ccccc3oc2=O)c1
[14]
  AC50: 0.262 µM (active)
[15]
  IC50: 0.87 µM (active)
[16]
  IC50: 0.978 µM (active)

## O=S(=O)(Nc1nc2ccccc2nc1N1CCc2ccccc2C1)c1ccc(Cl)cc1
[15]
  IC50: 9.18 µM (active)
[16]
  IC50: 10 µM (active)

## COc1ccc(CC(=O)OCC(=O)Nc2ccc(Br)cc2)cc1
[17]
  IC50: 83.3 µM (inactive)

## COc1ccc(CCn2c(=N)c(C(=O)NCCN3CCOCC3)cc3c(=O)n4cccc(C)c4nc32)cc1OC
[18]
  AC50: 6.24 µM (active)

## CCCCCCCCCCCCCCCC[N+](C)(C)CCl
[15]
  IC50: 8.42 µM (active)
[8]
  AC50: 5.15 µM (active)
[16]
  IC50: 8.15 µM (active)
[19]
  AC50: 5.5 µM (active)

## C=CC(=O)/N=c1\sc2ccccc2n1-c1ccccc1
[2]
  IC50: 4.37 µM (active)
[3]
  IC50: 1.78 µM (active)
[20]
  AC50: 1.6 µM (active)

## O=C(N/N=C1/CCC/C1=C(/O)C(F)(F)F)c1ccccc1O
[21]
  EC50: 1.44 µM (active)
[22]
  EC50: 2.75 µM (active)
[2]
  IC50: 2.27 µM (active)
[3]
  IC50: 3.57 µM (active)

## C/C=C/c1ccc2c(c1)O[C@H](CN(C)C(=O)Nc1cccc(F)c1)[C@H](C)CN([C@@H](C)CO)S2(=O)=O
[23]
  AC50: 31.9 µM (active)

## Cc1nccc2c1[nH]c1ccccc12 [HARMAN]
[18]
  AC50: 58.4 µM (active)
